Entries after “also recorded” stand apart in the source; their conditions may differ.
Key:
TIMP-1 mRNA = assay: BDL mice liver quantitative RT-PCR, TIMP-1; format: in vivo; details: for TIMP-1 relative mRNA expression level: BDL mice liver, normalized to 36B4, Sham 1.00, mean ± SD
Procedure: (§1) Quantitative RT-PCR: Total ribonucleic acid (RNA) was extracted from liver samples using RNAiso (Takara Bio, Japan) according to the manufacturer's instructions. One μg of RNA was reverse-transcribed using a reaction mixture containing 4.4 mM magnesium chloride (MgCl2) (F. Hoffmann-La Roche, Switzerland), 40 U RNase inhibitor (Toyobo, Japan), 0.5 mM dNTP (Promega, USA), 6.28 μM random hexamer (Promega), 5× first strand buffer (Promega), 10 mM dithiothreitol (Invitrogen, USA) and 200 U MMLV-RT (Invitrogen) in a final volume of 20 μL. The reaction was carried out for 1 hour at 37° C., followed by 5 minutes at 99° C. Real-time PCR was performed using real-time PCR DICE and TB Green™ Premix Ex Taq™ II (Takara Bio). To calculate the relative mRNA expression level, the expression of each gene (α-SMA, TIMP-1, TGF-β and Collagen Type 1) was normalized to that of reference gene 36B4 (gene symbol: Rplp0). Information regarding the PCR-primer sets and the plate layout are described in Tables 8 and 9.

Collagen Type 1 mRNA = assay: BDL mice liver quantitative RT-PCR, Collagen Type 1; format: in vivo; details: for Collagen Type 1 relative mRNA expression level: BDL mice liver, normalized to 36B4, Sham 1.00, mean ± SD
Procedure: as §1

[1] = BDL mice, 500 mg/kg PO QD Day 0-13, 500 mg/kg
[2] = BDL mice, DS102 treatment groups as a whole

15-HEPE [DS102]
TIMP-1 relative mRNA expression level (TIMP-1 mRNA; 50 mg/kg PO QD Day 0-13): 43.82 ± 26.19
TIMP-1 relative mRNA expression level (TIMP-1 mRNA; 250 mg/kg PO QD Day 0-13): 30.65 ± 16.80
TIMP-1 relative mRNA expression level (TIMP-1 mRNA; 500 mg/kg PO QD Day 0-13): 16.09 ± 10.16
TIMP-1 mRNA expression level compared with the Vehicle group (TIMP-1 mRNA; [1]): tended to decrease; also recorded: trend approaching significance
TIMP-1 mRNA expression level, Vehicle group vs the DS102 treatment groups (TIMP-1 mRNA; [2]): no significant differences
Collagen Type 1 relative mRNA expression level (Collagen Type 1 mRNA; 50 mg/kg PO QD Day 0-13): 4.94 ± 2.76
Collagen Type 1 relative mRNA expression level (Collagen Type 1 mRNA; 250 mg/kg PO QD Day 0-13): 4.21 ± 1.90
Collagen Type 1 relative mRNA expression level (Collagen Type 1 mRNA; 500 mg/kg PO QD Day 0-13): 2.51 ± 1.39
Collagen Type 1 mRNA expression level compared with the Vehicle group (Collagen Type 1 mRNA; [1]): tended to decrease; also recorded: trend approaching significance
Collagen Type 1 mRNA expression level, Vehicle group vs the DS102 treatment groups (Collagen Type 1 mRNA; [2]): no significant differences
